Source: patent publication US20170121683A1, “ARYL HYDROCARBON RECEPTOR DISRUPTION AND ENHANCEMENT” (priority 2015, published 2017)

Key:
Format in all cases: cell-based, human
[1] = system: hESC-derived hematopoietic cells; assay: NK cell differentiation from spin-EBs on OP9-DL1, flow cytometry (Example 2); conditions: Days 11+21 and 11+28, 1 μM SR-1 or 10 nM TCDD
Method: FIG. 13A. Schema of hESC differentiation into lymphoid cells as spin-embryoid bodies (spin-EBs). hESCs are made into spin-EBs at Day 0 and cultured in Stage 1 conditions with defined cytokines to promote mesoderm development for 11 days. At Day 11, spin-EBs are transferred onto OP9-DL1 in the presence of NK cell differentiation media (NKDM) to promote lymphoid differentiation. Cells are treated beginning at Day 11+0 with either 1 μM SR-1, 10 nM TCDD, or DMSO vehicle control with media exchanges and/or harvesting performed every week for up to 4 weeks. FIG. 13B. At Day 11, differentiated spin-EBs (photo) are phenotyped for CD34^+CD45^+ expression and transferred to OP9-DL1 stroma in NKDM. Non-adherent hematopoietic cells cultured either in the presence of DMSO, SR-1, or TCDD were assessed for developing NK cell immunophenotype based on CD56^+CD45^+ expression at Days 11+21, and 11+28; representative flow cytometry plots from one differentiation are shown. FIG. 13C. Quantification of fold-change in total percentage of CD56^+CD45^+ cells at both Day 11+21 and Day 11+28 when treated with DMSO, SR-1, or TCDD. SR-1 and TCDD treatments for each differentiation are normalized to DMSO controls. n=3 independent differentiation experiments, error bars represent SEM, *p<0.05 as assessed with two-way ANOVA+Tukey-Kramer multiple comparisons post-hoc test. FIG. 13D. […]

[2] = system: hESC-derived hematopoietic cells; assay: qRT-PCR of lymphoid-specific gene expression; parameters: expression of TBX21/TBET, fold vs DMSO-treated control / expression of EOMES, fold vs DMSO-treated control: concentration or dose not given beside the values; conditions: Day 11+28
Method: FIG. 13A. Schema of hESC differentiation into lymphoid cells as spin-embryoid bodies (spin-EBs). hESCs are made into spin-EBs at Day 0 and cultured in Stage 1 conditions with defined cytokines to promote mesoderm development for 11 days. At Day 11, spin-EBs are transferred onto OP9-DL1 in the presence of NK cell differentiation media (NKDM) to promote lymphoid differentiation. Cells are treated beginning at Day 11+0 with either 1 μM SR-1, 10 nM TCDD, or DMSO vehicle control with media exchanges and/or harvesting performed every week for up to 4 weeks. FIG. 13B. At Day 11, differentiated spin-EBs (photo) are phenotyped for CD34^+CD45^+ expression and transferred to OP9-DL1 stroma in NKDM. Non-adherent hematopoietic cells cultured either in the presence of DMSO, SR-1, or TCDD were assessed for developing NK cell immunophenotype based on CD56^+CD45^+ expression at Days 11+21, and 11+28; representative flow cytometry plots from one differentiation are shown. FIG. 13C. Quantification of fold-change in total percentage of CD56^+CD45^+ cells at both Day 11+21 and Day 11+28 when treated with DMSO, SR-1, or TCDD. SR-1 and TCDD treatments for each differentiation are normalized to DMSO controls. n=3 independent differentiation experiments, error bars represent SEM, *p<0.05 as assessed with two-way ANOVA+Tukey-Kramer multiple comparisons post-hoc test. FIG. 13D. Non-adherent hematopoietic progenitor cells derived from hESCs differentiated in the presence of SR-1, TCDD, or DMSO controls were harvested at Day 11+28 and probed for gene expression by quantitative real-time PCR (qRT-PCR). For each gene, Ct values were normalized to GAPDH at each time point and data is presented as relative fold-change to DMSO treated controls. n=3, error bars represent SEM, *p<0.05, #p<0.01 using student's t-test. FIG. 13E. Non-adherent hematopoietic progenitor cells derived from hESCs differentiated in the presence of SR-1, TCDD, or DMSO controls were harvested at Day 11+28 and assessed for CD107a expression following 4 hours of co-culture with K562 target cells at 2:1 effector:target ratio. SSC: side scatter. Representative flow cytometry plots are shown from one experiment. FIG. 13F. Quantification of percentage of CD107a^+ cells when treated with DMSO, SR-1, or TCDD at Day 11+28, n=2-3 replicates.
Spin-EBs were generated as described above (see also Knorr et al. Stem Cells Dev. 2013; 22(13):1861-9; Ni et al. Embryonic Stem Cell Immunobiol. Methods Protoc. Methods Mol. Biol. 2013; 1029:33-41; Hermanson et al. Stem Cells. 2016; 34(1):93-101). Following 11 days of mesoderm conditioning (Day 11), spin-EBs were collected and analyzed by flow cytometry to assess hematopoietic progenitor cell potential (see flow cytometry methods for antibodies used) (FIG. 4A). Spin-EBs yielding >30% CD34^+CD45^+ cells were transferred onto 24-well plates coated with irradiated OP9-DL1 cells (as described in Martin et al. Blood. 2008; 112(7):2730-7; La Motte-Mohs et al. Blood. 2005; 105(4):1431-9) (now defined as Day 11+0). EBs and OP9-DL1 were co-cultured in NK differentiation media (NKDM) supplemented initially with SCF, IL-15, IL-7, Flt3-L (all R&D Systems), and IL-3 (PeproTech) for one week; DMSO, SR-1, or TCDD were also added at Day 11+0. Every week, a one-half media change with NKDM supplemented with SCF, IL-15, IL-7, Flt3-L, and drugs was performed. hESCs were differentiated for four additional weeks (Day 11+28) and non-adherent cells were harvested for analysis. […]

[3] = system: hESC-derived non-adherent hematopoietic progenitor cells; assay: Hematopoietic colony-forming unit (CFU) assay (Example 2); conditions: cells harvested at Day 6+5, 14 days in Methocult, n=3
Text: FIG. 9A. Non-adherent hematopoietic progenitor cells derived from hESCs differentiated in the presence of SR-1, TCDD, or DMSO controls were harvested at Day 6+5 and seeded at 50,000 cells/dish in a standard methylcellulose colony-forming unit assay (CFU). Colonies were counted for each treatment group following 2 weeks of culture and scored for the following morphological subsets: BFU-E: burst-forming unit-erythroid; CFU-E: colony-forming unit-erythroid; CFU-GM: colony-forming unit-granulocyte, macrophage, CFU-M: colony-forming unit-macrophage; CFU-GEMM: colony-forming unit-granulocyte, erythroid, macrophage, megakaryocyte. n=3, error bars represent SEM of the total number of colonies/50,000 cells seeded, *p<0.05 as assessed with one-way ANOVA+Tukey-Kramer multiple comparisons post-hoc test. FIG. 9B. Non-adherent hematopoietic progenitor cells derived from hESCs differentiated in the presence of SR-1, TCDD, or DMSO controls were harvested at Day 6+3, Day 6+6, and Day 6+9 time points and probed for gene expression by quantitative real-time PCR (qRT-PCR). […]
Day 6+5 spin-EB non-adherent fractions were resuspended in IMDM. […] Plates were incubated for 14 days and subsequently counted and phenotypically scored using standard criteria (Kaufman et al. Proc. Natl. Acad. Sci. U.S.A. 2001; 98(19):10716-21).

Row | SMILES | development of NK cells (CD56+CD45+) compared to DMSO treated controls [1] | expression of EOMES, fold vs DMSO-treated control [2] [fold] | expression of ID2, fold vs DMSO-treated control [2] [fold] | expression of TBX21/TBET, fold vs DMSO-treated control [2] [fold] | total number of colonies / 50,000 cells seeded [3] [colonies]
1 | CC(C)n1cnc2c(NCCc3ccc(O)cc3)nc(-c3csc4ccccc34)nc21 [SR-1, StemReginin-1] | increased development of NK cells | 5.12±0.52 | 2.49±0.003 | 3.44±0.55 | 245.67±64.4
2 | Clc1cc2c(cc1Cl)Oc1cc(Cl)c(Cl)cc1O2 [TCDD, 2,3,7,8-tetrachlorodibenzo-p-dioxin] | fewer phenotypic NK cells | 1.84±0.11 |  | 1.56±0.07 | 28.3±2.67
